Data: patent US10669272B2, “Substituted naphthyridinone compounds useful as T cell activators” (BRISTOL-MYERS SQUIBB COMPANY, priority 2018, dated 2020)
Like-named read-outs stand apart in the source and are kept apart here.

Legend:
human DGKζ = target: T1, human DGKζ (Homo sapiens, UniProt Q13574); test: DGKζ LIPGLO assay (extruded liposome substrate), in vitro DGK inhibition; assay type: biochemical; conditions: read-out: DGKz LIPGLO IC50
T1 construct: TVMV protease cleavage site (C); Hexa-His (C); made in house; host or cells: Sf9 insect cells (baculovirus, Bac-to-Bac)
T1 sequence (Q13574 with tags, fused parts or gaps isoform Q13574-4): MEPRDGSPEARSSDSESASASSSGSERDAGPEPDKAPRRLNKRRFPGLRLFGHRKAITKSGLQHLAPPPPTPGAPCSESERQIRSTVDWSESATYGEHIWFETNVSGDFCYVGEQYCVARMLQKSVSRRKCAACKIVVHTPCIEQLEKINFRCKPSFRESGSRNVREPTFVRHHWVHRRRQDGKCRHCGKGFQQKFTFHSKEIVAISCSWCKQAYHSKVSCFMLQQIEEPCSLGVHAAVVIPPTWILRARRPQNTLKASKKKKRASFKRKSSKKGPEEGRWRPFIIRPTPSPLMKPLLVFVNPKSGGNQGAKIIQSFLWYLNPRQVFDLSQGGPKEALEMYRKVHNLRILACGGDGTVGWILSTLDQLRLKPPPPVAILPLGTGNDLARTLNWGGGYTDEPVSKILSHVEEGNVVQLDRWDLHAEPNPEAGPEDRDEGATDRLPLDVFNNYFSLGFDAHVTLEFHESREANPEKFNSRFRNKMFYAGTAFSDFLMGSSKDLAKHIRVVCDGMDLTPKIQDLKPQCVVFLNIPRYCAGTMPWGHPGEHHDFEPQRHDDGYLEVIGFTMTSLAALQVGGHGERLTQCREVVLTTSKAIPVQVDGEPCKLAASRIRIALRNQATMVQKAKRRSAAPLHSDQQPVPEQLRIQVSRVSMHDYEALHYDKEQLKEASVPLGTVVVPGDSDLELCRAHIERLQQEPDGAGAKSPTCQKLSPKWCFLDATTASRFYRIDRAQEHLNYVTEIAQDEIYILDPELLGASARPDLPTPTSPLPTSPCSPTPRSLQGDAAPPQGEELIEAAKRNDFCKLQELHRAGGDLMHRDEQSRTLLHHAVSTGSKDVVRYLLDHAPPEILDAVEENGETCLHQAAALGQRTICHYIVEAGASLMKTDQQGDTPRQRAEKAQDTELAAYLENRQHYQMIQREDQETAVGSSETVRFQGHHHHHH

human DGKα = target: T2, human DGKα (Homo sapiens, UniProt P23743); test: DGKα LIPGLO assay (extruded liposome substrate), in vitro DGK inhibition; assay type: biochemical; conditions: read-out: DGKa LIPGLO IC50
T2 construct: TVMV protease cleavage site (C); Hexa-His (C); made in house; host or cells: Sf9 insect cells (baculovirus, Bac-to-Bac)
T2 sequence (P23743 with tags, fused parts or gaps): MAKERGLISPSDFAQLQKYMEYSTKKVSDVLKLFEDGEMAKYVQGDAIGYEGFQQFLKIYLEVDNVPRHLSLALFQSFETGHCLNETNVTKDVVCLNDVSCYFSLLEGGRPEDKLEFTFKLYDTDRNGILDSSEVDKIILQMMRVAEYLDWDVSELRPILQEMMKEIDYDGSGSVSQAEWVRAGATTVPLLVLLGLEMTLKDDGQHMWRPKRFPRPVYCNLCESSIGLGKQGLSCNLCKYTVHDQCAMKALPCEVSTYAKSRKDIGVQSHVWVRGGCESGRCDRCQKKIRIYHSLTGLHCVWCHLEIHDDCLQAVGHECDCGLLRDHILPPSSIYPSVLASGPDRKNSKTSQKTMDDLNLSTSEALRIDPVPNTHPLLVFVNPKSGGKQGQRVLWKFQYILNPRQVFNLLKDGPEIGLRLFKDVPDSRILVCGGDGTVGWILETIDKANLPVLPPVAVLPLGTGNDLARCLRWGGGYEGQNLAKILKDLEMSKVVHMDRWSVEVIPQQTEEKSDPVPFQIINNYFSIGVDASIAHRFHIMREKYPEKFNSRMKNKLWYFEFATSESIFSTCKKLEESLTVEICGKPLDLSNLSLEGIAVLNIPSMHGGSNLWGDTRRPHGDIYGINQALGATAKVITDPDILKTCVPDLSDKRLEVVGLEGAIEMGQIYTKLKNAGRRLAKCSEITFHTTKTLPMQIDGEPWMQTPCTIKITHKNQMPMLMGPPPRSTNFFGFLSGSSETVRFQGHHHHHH

C[C@@H]1CN(c2c(C#N)c(=O)n(C)c3ccc(C#N)nc23)[C@@H](C)CN1C(c1ccc(F)cc1)c1cc(C2CC2)on1 (single isomer, unassigned) [Example 869]
IC50 (human DGKζ; DGKζ liposome (LIPGLO) assay): 14000 nM | IC50 (human DGKα; DGKα liposome (LIPGLO) assay): 17000 nM

C[C@@H]1CN(c2c(C#N)c(=O)n(C)c3ccc(C#N)nc23)CCN1C(c1ccc(Cl)cc1)c1ccc(C#N)cc1 (single isomer, unassigned) [Example 872]
IC50 (human DGKζ; DGKζ liposome (LIPGLO) assay): 1400 nM | IC50 (human DGKα; DGKα liposome (LIPGLO) assay): 1500 nM

C[C@@H]1CN(c2c(C#N)c(=O)n(C)c3ccc(C#N)nc23)CCN1C(c1ccc(Cl)cc1)c1ccc(C#N)cc1 (single isomer, unassigned) [Example 873]
IC50 (human DGKζ; DGKζ liposome (LIPGLO) assay): 7200 nM | IC50 (human DGKα; DGKα liposome (LIPGLO) assay): 2600 nM

C[C@@H]1CN(c2c(C#N)c(=O)n(C)c3ccc(C#N)nc23)CCN1C(c1ccc(Cl)cc1)c1ccc(F)cn1 (single isomer, unassigned) [Example 900]
IC50 (human DGKζ; DGKζ liposome (LIPGLO) assay): 800 nM | IC50 (human DGKα; DGKα liposome (LIPGLO) assay): 2600 nM

C[C@@H]1CN(c2c(C#N)c(=O)n(C)c3ccc(C#N)nc23)CCN1C(c1ccc(Cl)cc1)c1ccc(F)cn1 (single isomer, unassigned) [Example 901]
IC50 (human DGKζ; DGKζ liposome (LIPGLO) assay): 1700 nM | IC50 (human DGKα; DGKα liposome (LIPGLO) assay): 390 nM

Cc1ccc(C(c2cccc(F)c2)N2CCN(c3c(C#N)c(=O)n(C)c4ccc(C#N)nc34)C[C@H]2C)nc1 (single isomer, unassigned) [Example 912]
IC50 (human DGKζ; DGKζ liposome (LIPGLO) assay): 580 nM | IC50 (human DGKα; DGKα liposome (LIPGLO) assay): 2100 nM

C[C@@H]1CN(c2c(C#N)c(=O)n(C)c3ccc(C#N)nc23)CCN1C(c1ccc(F)cc1)c1cccc2c1OC(C)(C)C2 (single isomer, unassigned) [Example 934]
IC50 (human DGKζ; DGKζ liposome (LIPGLO) assay): 5400 nM | IC50 (human DGKα; DGKα liposome (LIPGLO) assay): 8600 nM

C[C@@H]1CN(c2c(C#N)c(=O)n(C)c3ccc(C#N)nc23)CCN1C(c1ccc(F)cc1)c1cccc2c1OC(C)(C)C2 (single isomer, unassigned) [Example 935]
IC50 (human DGKζ; DGKζ liposome (LIPGLO) assay): 1800 nM | IC50 (human DGKα; DGKα liposome (LIPGLO) assay): 1900 nM

Cc1ccc(C(c2ccc(Cl)cn2)N2CCN(c3c(C#N)c(=O)n(C)c4ccc(C#N)nc34)C[C@H]2C)cc1 (single isomer, unassigned) [Example 936]
IC50 (human DGKζ; DGKζ liposome (LIPGLO) assay): 3300 nM | IC50 (human DGKα; DGKα liposome (LIPGLO) assay): 1000 nM

Cc1ccc(C(c2ccc(Cl)cn2)N2CCN(c3c(C#N)c(=O)n(C)c4ccc(C#N)nc34)C[C@H]2C)cc1 (single isomer, unassigned) [Example 937]
IC50 (human DGKζ; DGKζ liposome (LIPGLO) assay): 1100 nM | IC50 (human DGKα; DGKα liposome (LIPGLO) assay): 340 nM

CC(c1ccccn1)N1CCN(c2c(C#N)c(=O)n(C)c3ccc(C#N)nc23)C[C@H]1C (single isomer, unassigned) [Example 965]
IC50 (human DGKζ; DGKζ liposome (LIPGLO) assay): 60000 nM | IC50 (human DGKα; DGKα liposome (LIPGLO) assay): 960 nM

CC(c1cccc(C(F)(F)F)c1)N1CCN(c2c(C#N)c(=O)n(C)c3ccc(C#N)nc23)C[C@H]1C (single isomer, unassigned) [Example 971]
IC50 (human DGKζ; DGKζ liposome (LIPGLO) assay): 4900 nM | IC50 (human DGKα; DGKα liposome (LIPGLO) assay): 1800 nM

CC(c1cccc(C(F)(F)F)c1)N1CCN(c2c(C#N)c(=O)n(C)c3ccc(C#N)nc23)C[C@H]1C (single isomer, unassigned) [Example 972]
IC50 (human DGKζ; DGKζ liposome (LIPGLO) assay): 15000 nM | IC50 (human DGKα; DGKα liposome (LIPGLO) assay): 20000 nM

CC(c1ccc(Cl)cc1)N1CCN(c2c(C#N)c(=O)n(C)c3ccc(C#N)nc23)C[C@H]1C (single isomer, unassigned) [Example 978]
IC50 (human DGKζ; DGKζ liposome (LIPGLO) assay): 4900 nM | IC50 (human DGKα; DGKα liposome (LIPGLO) assay): 1300 nM

CCC(c1ccc(OC(F)(F)F)cc1F)N1C[C@H](CC)N(c2cc(=O)n(C)c3ccc(C#N)nc23)C[C@H]1CC (single isomer, unassigned) [Example 1057]
IC50 (human DGKζ; liposome (LIPGLO) assay): 40 nM | IC50 (human DGKα; liposome (LIPGLO) assay): 23 nM

CCC(c1ccc(OC(F)(F)F)cc1F)N1C[C@H](CC)N(c2cc(=O)n(C)c3ccc(C#N)nc23)C[C@H]1CC (single isomer, unassigned) [Example 1058]
IC50 (human DGKζ; liposome (LIPGLO) assay): 570 nM | IC50 (human DGKα; liposome (LIPGLO) assay): 750 nM

CCC(c1ccc(OC(F)(F)F)cc1)N1C[C@H](CC)N(c2cc(=O)n(C)c3ccc(C#N)nc23)C[C@H]1CC (single isomer, unassigned) [Example 1059]
IC50 (human DGKζ; liposome (LIPGLO) assay): 44 nM | IC50 (human DGKα; liposome (LIPGLO) assay): 9 nM

CC[C@@H]1CN(c2cc(=O)n(C)c3ccc(C#N)nc23)[C@@H](C)CN1C(C)c1ccc(F)cc1F (single isomer, unassigned) [Example 1087]
IC50 (human DGKζ; liposome (LIPGLO) assay): 86 nM | IC50 (human DGKα; liposome (LIPGLO) assay): 72 nM

CC[C@@H]1CN(c2cc(=O)n(C)c3ccc(C#N)nc23)[C@@H](C)CN1C(C)c1ccc(F)cc1F (single isomer, unassigned) [Example 1088]
IC50 (human DGKζ; liposome (LIPGLO) assay): 4900 nM | IC50 (human DGKα; liposome (LIPGLO) assay): 3400 nM

CC[C@@H]1CN(c2cc(=O)n(C)c3ccc(C#N)nc23)[C@@H](C)CN1C(C)c1c(F)cc(F)cc1F (single isomer, unassigned) [Example 1089]
IC50 (human DGKζ; liposome (LIPGLO) assay): 120 nM | IC50 (human DGKα; liposome (LIPGLO) assay): 510 nM

CC[C@@H]1CN(c2cc(=O)n(C)c3ccc(C#N)nc23)[C@@H](C)CN1C(C)c1c(F)cc(F)cc1F (single isomer, unassigned) [Example 1090]
IC50 (human DGKζ; liposome (LIPGLO) assay): 1800 nM | IC50 (human DGKα; liposome (LIPGLO) assay): 4100 nM

CC[C@@H]1CN(c2cc(=O)n(C)c3ccc(C#N)nc23)[C@@H](C)CN1C(C)c1ccc(C(F)(F)F)cc1 (single isomer, unassigned) [Example 1094]
IC50 (human DGKζ; liposome (LIPGLO) assay): 2100 nM | IC50 (human DGKα; liposome (LIPGLO) assay): 460 nM

CC[C@@H]1CN(c2cc(=O)n(C)c3ccc(C#N)nc23)[C@@H](C)CN1C(C)c1ccc(OC(F)(F)F)cc1F (single isomer, unassigned) [Example 1095]
IC50 (human DGKζ; liposome (LIPGLO) assay): 18 nM | IC50 (human DGKα; liposome (LIPGLO) assay): 27 nM

CC[C@@H]1CN(c2cc(=O)n(C)c3ccc(C#N)nc23)[C@@H](C)CN1C(C)c1ccc(OC(F)(F)F)cc1F (single isomer, unassigned) [Example 1096]
IC50 (human DGKζ; liposome (LIPGLO) assay): 1400 nM | IC50 (human DGKα; liposome (LIPGLO) assay): 2200 nM

CC[C@@H]1CN(c2cc(=O)n(C)c3ccc(C#N)nc23)[C@@H](C)CN1C(c1cccc(F)c1)c1ccc(F)cn1 (single isomer, unassigned) [Example 1108]
IC50 (human DGKζ; liposome (LIPGLO) assay): 90 nM | IC50 (human DGKα; liposome (LIPGLO) assay): 31 nM

CC[C@H]1CN(C(c2ccc(C)cc2)c2ccc(Cl)cc2)[C@H](C)CN1c1cc(=O)n(C)c2ccc(C#N)nc12 (single isomer, unassigned) [Example 1121]
IC50 (human DGKζ; liposome (LIPGLO) assay): 2700 nM | IC50 (human DGKα; liposome (LIPGLO) assay): 1800 nM

CC[C@H]1CN(C(c2ccc(C)cc2)c2ccc(Cl)cc2)[C@H](C)CN1c1cc(=O)n(C)c2ccc(C#N)nc12 (single isomer, unassigned) [Example 1122]
IC50 (human DGKζ; liposome (LIPGLO) assay): 840 nM | IC50 (human DGKα; liposome (LIPGLO) assay): 710 nM

COC[C@@H]1CN(c2cc(=O)n(C)c3ccc(C#N)nc23)[C@@H](C)CN1C(C)c1ccc(OC(F)(F)F)cc1 (single isomer, unassigned) [Example 1162]
IC50 (human DGKζ; liposome (LIPGLO) assay): 550 nM | IC50 (human DGKα; liposome (LIPGLO) assay): 480 nM

COC[C@@H]1CN(c2cc(=O)n(C)c3ccc(C#N)nc23)[C@@H](C)CN1C(C)c1ccc(OC(F)(F)F)cc1 (single isomer, unassigned) [Example 1163]
IC50 (human DGKζ; liposome (LIPGLO) assay): 7500 nM | IC50 (human DGKα; liposome (LIPGLO) assay): 10000 nM

C[C@@H]1CN(C(c2ccc(F)cc2)c2ccc(C#N)cc2)[C@@H](CO)CN1c1cc(=O)n(C)c2ccc(C#N)nc12 (single isomer, unassigned) [Example 1176]
IC50 (human DGKζ; liposome (LIPGLO) assay): 2900 nM | IC50 (human DGKα; liposome (LIPGLO) assay): 12000 nM

C[C@@H]1CN(C(c2ccc(F)cc2)c2ccc(C#N)cc2)[C@@H](CO)CN1c1cc(=O)n(C)c2ccc(C#N)nc12 (single isomer, unassigned) [Example 1177]
IC50 (human DGKζ; liposome (LIPGLO) assay): 620 nM | IC50 (human DGKα; liposome (LIPGLO) assay): 10000 nM

CC(c1ccc(OC(F)(F)F)cc1)N1C[C@@H](C)N(c2cc(=O)n(C)c3ccc(C#N)nc23)C[C@@H]1CO (single isomer, unassigned) [Example 1180]
IC50 (human DGKζ; liposome (LIPGLO) assay): 1400 nM | IC50 (human DGKα; liposome (LIPGLO) assay): 7600 nM

CC(c1ccc(OC(F)(F)F)cc1)N1C[C@@H](C)N(c2cc(=O)n(C)c3ccc(C#N)nc23)C[C@@H]1CO (single isomer, unassigned) [Example 1181]
IC50 (human DGKζ; liposome (LIPGLO) assay): 2500 nM | IC50 (human DGKα; liposome (LIPGLO) assay): 77000 nM

Cn1c(=O)cc(N2CCN(Cc3ccc(F)cc3Cl)C(COC(F)F)C2)c2nc(C#N)ccc21 (single isomer, unassigned) [Example 1184, 8-(4-(2-chloro-4-fluorobenzyl)-3-((difluoromethoxy)methyl)piperazin-1-yl)-5-methyl-6-oxo-5,6-dihydro-1,5-naphthyridine-2-carbonitrile]
IC50 (human DGKζ; liposome (LIPGLO) assay): 11000 nM | IC50 (human DGKα; liposome (LIPGLO) assay): 110000 nM

Cn1c(=O)cc(N2CCN(C(c3ccc(F)cc3)c3ccc(F)cc3)C(COC(F)F)C2)c2nc(C#N)ccc21 (single isomer, unassigned) [Example 1186]
IC50 (human DGKζ; liposome (LIPGLO) assay): 30000 nM | IC50 (human DGKα; liposome (LIPGLO) assay): > 250000 nM

Cn1c(=O)cc(N2CCN(C(c3ccc(F)cc3)c3ccc(F)cc3)C(COC(F)F)C2)c2nc(C#N)ccc21 (single isomer, unassigned) [Example 1187]
IC50 (human DGKζ; liposome (LIPGLO) assay): 2900 nM | IC50 (human DGKα; liposome (LIPGLO) assay): 150000 nM

C[C@@H]1CN(c2cc(=O)n(C)c3ccc(C#N)nc23)[C@@H](C)CN1C(COC(F)F)c1ccc(F)cc1 (single isomer, unassigned) [Example 1188]
IC50 (human DGKζ; liposome (LIPGLO) assay): 780 nM | IC50 (human DGKα; liposome (LIPGLO) assay): 29 nM

CC(c1cc(OC(F)F)ccc1F)N1C[C@H](C)N(c2cc(=O)n(C)c3ccc(C#N)nc23)C[C@H]1C (single isomer, unassigned) [Example 1228]
IC50 (human DGKζ; liposome (LIPGLO) assay): 3000 nM | IC50 (human DGKα; liposome (LIPGLO) assay): 5400 nM

CC(c1cc(F)c(F)c(F)c1)N1C[C@H](C)N(c2cc(=O)n(C)c3ccc(C#N)nc23)C[C@H]1C (single isomer, unassigned) [Example 1240]
IC50 (human DGKζ; liposome (LIPGLO) assay): 150 nM | IC50 (human DGKα; liposome (LIPGLO) assay): 3500 nM
